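Five concentrations, 48 hours, 96-well plates. GI50: concentration for 50% inhibition of growth.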 Calls of active or inactive are those of the source. No stated cut-off is given here; in the data, active = GI50 up to about 1.1 µM and inactive = higher.

From ChEMBL document CHEMBL1201862, “PubChem BioAssay data set” (2004) come the findings set out here.

Test systems include SNB-75; BT-549; SF-268; T47D; SNB-19; NCI/ADR-RES; A549; NCI-H460; HCT-116; CAKI-1; PC-3; OVCAR-5; HL-60; SK-MEL-5; LOX IMVI; NCI-H226; MDA-N; UACC-257; SF-539.
Holding throughout (assay): NCI-60 cell line screen, 48 h

`O=C(CSc1nc2ccc(I)cc2c(=O)n1Cc1ccccc1)NNC(=O)c1ccccc1`: the GI50 was 2.38 µM (inactive) in the experiment on SNB-75; 7.31 µM (inactive) in the experiment with BT-549; 6.79 µM (inactive) in the experiment with SF-268; 10.6 µM (inactive) in the experiment on T47D; 21.3 µM (inactive) in the experiment with SNB-19; 13.6 µM (inactive) with NCI/ADR-RES. Further, the GI50 in the experiment with A549 was 11.9 µM (inactive); with NCI-H460, 17.3 µM (inactive); in the experiment on HCT-116 it was 19.7 µM (inactive); in the experiment on CAKI-1 it was 2.89 µM (inactive); with PC-3 it was 10.7 µM (inactive); in the experiment on OVCAR-5 it was 16 µM (inactive). The GI50 with HL-60 is > 100 µM (inactive); in the experiment on SK-MEL-5 it was 10.3 µM (inactive); in the experiment with LOX IMVI, 22.5 µM (inactive); with NCI-H226, 3.78 µM (inactive); in the experiment with MDA-N, 25.1 µM (inactive); with UACC-257, 18 µM (inactive). For the same compound, the GI50 in the experiment on SF-539 was 2.92 µM (inactive).

Regarding `Nc1cccc(C2CCCc3c2[nH]c2ccccc32)c1` (stereo not given), the GI50 is 11.9 µM (inactive) in the experiment with SNB-75; 18.4 µM (inactive) in the experiment with BT-549; 17.2 µM (inactive) in the experiment with SF-268; 12.1 µM (inactive) in the experiment on T47D; 12 µM (inactive) in the experiment on SNB-19; 17.7 µM (inactive) with NCI/ADR-RES. For the same compound, the GI50 with A549 was 17.5 µM (inactive); with NCI-H460, 19.5 µM (inactive); in the experiment with HCT-116 it was 13.4 µM (inactive); in the experiment with CAKI-1 it was 23.9 µM (inactive); with PC-3, 16.1 µM (inactive); in the experiment on OVCAR-5, 16.3 µM (inactive). Further, the GI50 in the experiment on HL-60 is 19.5 µM (inactive); with SK-MEL-5, 17.4 µM (inactive); in the experiment on LOX IMVI, 12.4 µM (inactive); in the experiment on NCI-H226, 25.7 µM (inactive); with MDA-N it was 17.5 µM (inactive); with UACC-257, 23.9 µM (inactive). The GI50 in the experiment on SF-539 is 20.3 µM (inactive).

In the case of `COC(=O)/C=C\C(C#N)(C#N)/N=C/c1ccccc1`, the GI50 in the experiment with SNB-75 was 6.35 µM (inactive); in the experiment on BT-549 it was 5.2 µM (inactive); in the experiment with SF-268, 4.95 µM (inactive); in the experiment on T47D, 1.72 µM (inactive); in the experiment with SNB-19, 23.9 µM (inactive); in the experiment with NCI/ADR-RES, 2.88 µM (inactive). Further, the GI50 in the experiment with A549 was 17.8 µM (inactive); with NCI-H460, 18.7 µM (inactive); in the experiment with HCT-116, 1.77 µM (inactive); in the experiment with CAKI-1, 2.86 µM (inactive); in the experiment on PC-3, 5.94 µM (inactive); in the experiment with OVCAR-5 it was 19 µM (inactive). In addition, the GI50 is 2.25 µM (inactive) in the experiment with HL-60; 13.5 µM (inactive) in the experiment with SK-MEL-5; 2.32 µM (inactive) in the experiment with LOX IMVI; 9.55 µM (inactive) in the experiment with NCI-H226; 4.44 µM (inactive) with MDA-N; 5.36 µM (inactive) in the experiment with UACC-257. In the experiment with SF-539, the GI50 was 3.78 µM (inactive).

On to `CCN1/C(=C/c2ccc3ccccc3[n+]2CC)C=Cc2ccccc21`, for which the GI50 in the experiment with SNB-75 was 0.35 µM (active); in the experiment on BT-549 it was 1.69 µM (inactive); in the experiment on SF-268, 1.27 µM (inactive); in the experiment with T47D, 0.22 µM (active); with SNB-19 it was 0.541 µM (active); in the experiment on NCI/ADR-RES, 21.9 µM (inactive). For the same compound, the GI50 in the experiment with A549 is 0.764 µM (active); with NCI-H460, 0.333 µM (active); in the experiment with HCT-116, 0.509 µM (active); with CAKI-1, 10 µM (inactive); in the experiment on PC-3, 0.445 µM (active); in the experiment with OVCAR-5, 5.37 µM (inactive). The GI50 in the experiment with HL-60 was 1.09 µM (active); in the experiment on SK-MEL-5, 0.329 µM (active); with LOX IMVI it was 0.561 µM (active); in the experiment with NCI-H226, 1.66 µM (inactive); in the experiment on MDA-N, 0.39 µM (active); in the experiment on UACC-257, 0.18 µM (active). Further, the GI50 with SF-539 is 1.89 µM (inactive).

As to `C[C@]12CC[C@H](O)CC1=CC[C@@H]1C2CC[C@]2(C)Nc3c(cnn3-c3ccc(F)cc3)CC12` (stereo not given in full), the GI50 was 2.71 µM (inactive) in the experiment on SNB-75; 14.4 µM (inactive) in the experiment on BT-549; 26.1 µM (inactive) with SF-268; > 42.7 µM (inactive) with T47D; 19.3 µM (inactive) with SNB-19; 21.5 µM (inactive) in the experiment on NCI/ADR-RES. The GI50 in the experiment with A549 was 52.1 µM (inactive); with NCI-H460 it was 3.51 µM (inactive); in the experiment with HCT-116, 14.7 µM (inactive); in the experiment on CAKI-1 it was 64.6 µM (inactive); with PC-3, 14.1 µM (inactive); in the experiment on OVCAR-5, > 100 µM (inactive). In addition, the GI50 with HL-60 is 4.12 µM (inactive); in the experiment on SK-MEL-5, 25.2 µM (inactive); in the experiment on LOX IMVI, 3.2 µM (inactive); in the experiment on NCI-H226 it was 40.9 µM (inactive); in the experiment on MDA-N, > 53.8 µM (inactive); in the experiment on UACC-257, 60.8 µM (inactive). For the same compound, the GI50 in the experiment with SF-539 is 1.46 µM (inactive).

For the compound `Cc1cc(O)nc2cc3oc4ccccc4c3cc12`, the GI50 with SNB-75 was > 100 µM (inactive); with BT-549, > 100 µM (inactive); in the experiment with SF-268, 28.1 µM (inactive); with T47D it was > 100 µM (inactive); in the experiment on SNB-19 it was > 50.6 µM (inactive); in the experiment with NCI/ADR-RES it was > 100 µM (inactive). For the same compound, the GI50 in the experiment on A549 is 7.64 µM (inactive); in the experiment on NCI-H460, 3.91 µM (inactive); in the experiment with HCT-116, 27.5 µM (inactive); in the experiment with CAKI-1 it was > 100 µM (inactive); in the experiment with PC-3 it was > 100 µM (inactive); with OVCAR-5, > 83.2 µM (inactive). Further, the GI50 is 17.6 µM (inactive) in the experiment on HL-60; 7.52 µM (inactive) in the experiment with SK-MEL-5; > 28.2 µM (inactive) in the experiment on LOX IMVI; 15.7 µM (inactive) with NCI-H226; > 100 µM (inactive) with MDA-N; > 50.2 µM (inactive) with UACC-257. Moreover, in the experiment with SF-539, the GI50 was 39.8 µM (inactive).

As to `Cc1ccc(C(=O)N/N=C(\N=N\c2cccc(Cl)c2)c2ccc(N(CCC#N)CCC#N)cc2C)cc1`, the GI50 in the experiment on SNB-75 was 75.9 µM (inactive); in the experiment on BT-549 it was > 100 µM (inactive); in the experiment on T47D, 69 µM (inactive); in the experiment on SNB-19, > 100 µM (inactive); in the experiment on NCI/ADR-RES, > 100 µM (inactive); with A549 it was > 100 µM (inactive). The GI50 in the experiment with NCI-H460 is > 100 µM (inactive); with HCT-116, > 100 µM (inactive); with CAKI-1, > 100 µM (inactive); in the experiment with PC-3, > 100 µM (inactive); with OVCAR-5, > 100 µM (inactive); in the experiment on HL-60, 56.9 µM (inactive). Moreover, the GI50 in the experiment with SK-MEL-5, with LOX IMVI, in the experiment with NCI-H226, with MDA-N, in the experiment on UACC-257 and with SF-539 was > 100 µM (inactive) in each case.

On to `COc1cc2cc3c4cc(OC)c(OC)cc4cc[n+]3c(C)c2cc1OC` [CORALYNE], for which the GI50 was 10.2 µM (inactive) in the experiment with SNB-75; 10.8 µM (inactive) in the experiment with BT-549; 1.96 µM (inactive) in the experiment with SF-268; > 100 µM (inactive) in the experiment on T47D; 13.4 µM (inactive) in the experiment on SNB-19; > 100 µM (inactive) in the experiment on NCI/ADR-RES. For the same compound, the GI50 with A549 is > 100 µM (inactive); in the experiment on NCI-H460, 38.9 µM (inactive); in the experiment with HCT-116 it was > 100 µM (inactive); with CAKI-1 it was 67.1 µM (inactive); in the experiment with PC-3, > 100 µM (inactive); in the experiment on OVCAR-5, > 100 µM (inactive). Further, the GI50 in the experiment with HL-60 is > 100 µM (inactive); in the experiment with SK-MEL-5, 72.1 µM (inactive); in the experiment with LOX IMVI, > 100 µM (inactive); in the experiment on NCI-H226, 30.4 µM (inactive); in the experiment with MDA-N it was > 100 µM (inactive); in the experiment with UACC-257, 35.4 µM (inactive). Further, the GI50 in the experiment on SF-539 was 41.7 µM (inactive).

In the case of `CNc1ccc(N)cc1C(=O)N1CCC[C@H]1CO`, the GI50 in the experiment on SNB-75, in the experiment on BT-549, with SF-268, with T47D, with SNB-19 and in the experiment on NCI/ADR-RES was > 100 µM (inactive) throughout. For the same compound, the GI50 with A549, in the experiment with HCT-116, in the experiment with CAKI-1, with PC-3, with OVCAR-5 and in the experiment on HL-60 was > 100 µM (inactive) in each case. Moreover, the GI50 in the experiment on SK-MEL-5, in the experiment on LOX IMVI, with NCI-H226, with MDA-N, with UACC-257 and in the experiment with SF-539 was > 100 µM (inactive) throughout.

`O=C1CCSc2c(cnc3ccccc23)N1`: the GI50 is 27.7 µM (inactive) in the experiment on SNB-75; 27.4 µM (inactive) in the experiment with BT-549; > 100 µM (inactive) in the experiment with SF-268; > 100 µM (inactive) with T47D; > 100 µM (inactive) in the experiment on NCI/ADR-RES; > 100 µM (inactive) in the experiment with A549. Also, the GI50 in the experiment on NCI-H460 was 89.7 µM (inactive); with HCT-116, > 100 µM (inactive); in the experiment on CAKI-1, 56.8 µM (inactive); in the experiment with PC-3, 49.7 µM (inactive); with OVCAR-5, > 100 µM (inactive); with HL-60, > 100 µM (inactive). In addition, the GI50 in the experiment with SK-MEL-5 is > 100 µM (inactive); in the experiment with LOX IMVI, 58.2 µM (inactive); in the experiment on NCI-H226, 34.8 µM (inactive); in the experiment with MDA-N, > 100 µM (inactive); in the experiment on UACC-257, > 100 µM (inactive); with SF-539, 59.3 µM (inactive).

Consider `S=C(NCc1ccccc1)c1nc[nH]c1C(=S)NCc1ccccc1`, for which the GI50 is 6.12 µM (inactive) with SNB-75; 13.3 µM (inactive) in the experiment on BT-549; 6.19 µM (inactive) in the experiment with SF-268; 4.35 µM (inactive) with T47D; 5.4 µM (inactive) in the experiment on SNB-19; 3.41 µM (inactive) in the experiment with NCI/ADR-RES. Further, the GI50 in the experiment on A549 was 3.89 µM (inactive); with NCI-H460 it was 4.06 µM (inactive); in the experiment on HCT-116, 5.64 µM (inactive); in the experiment on CAKI-1 it was 5.47 µM (inactive); in the experiment with PC-3, 7.82 µM (inactive); with OVCAR-5 it was 6.98 µM (inactive). The GI50 was 7.69 µM (inactive) in the experiment on HL-60; 4.72 µM (inactive) in the experiment with LOX IMVI; 1.78 µM (inactive) in the experiment on NCI-H226; 7.74 µM (inactive) with MDA-N; 10.1 µM (inactive) with UACC-257; 10.4 µM (inactive) in the experiment with SF-539.
